Like-named read-outs stand apart in the source and are kept apart here.
Columns and labels:
[1] = system: pCA-induced 5-HT syndrome; assay: Inhibition of p-chloroamphetamine (pCA)-induced stereotypy in rats, p.o.; type: in vivo, male Sprague-Dawley rats; conditions: for inhibition of syndrome at 50 mg/kg: 50 mg/kg p.o.; for ED50: Rattus norvegicus, po; for antagonism of pCA-induced stereotypy (in words): 5 dose levels
Method: Representative compounds of this invention were tested for their ability to inhibit pCA induced syndrome in rats by the standard procedure described below:
(§1) Inhibition of p-chloroamphetamine (pCA)-induced stereotypy
Vehicle or drug (5 dose levels) were administered p.o. to six groups of 6-8 male Sprague-Dawley rats (300-400 g) followed, 90 minutes later, by pCA (10 mg/kg i.p.). The animals were then placed in individual observation chambers and, 30 minutes after pCA administration, the intensity of the pCA-induced 5-HT syndrome was assessed according to the following scoring system:
head-weaving 0, 1, 2 or 3 according to
fore-paw treading severity
(§2) tremor 0 (absent) or 1 (present)
Therefore, the maximum score for each animal was 10.
(§3) The inhibition of pCA induced stereotypy is calculated for each dose level as follows: [formula] where
C=control group total score at 30 minutes post pCA.
T=group total score of treated group at 30 minutes post pCA.
For each dose a % effect is calculated.
The results obtained from the tests using 5 different dose levels of the drug allow the ED50 value (i.e. the dose required to produce 50% inhibition of pCA induced stereotypy) to be calculated.
The test was carried out using the free bases except for compound C which was tested in the form if its maleate salt and the result corrected for amount of active material.

pCA syndrome = assay: Related duration test on pCA syndrome (with modified scoring); type: in vivo; conditions: 15 mg/kg
[2] = system: 3H noradrenaline (NA) uptake into rat brain synaptosomes; assay: Inhibition of 3H noradrenaline (NA) uptake into rat brain synaptosomes; type: biochemical, male Sprague Dawley rats; conditions: 37°, 4 minutes
Method: (§4) In vitro tests have shown that compounds of formula I also have a marked degree of selectivity in inhibiting uptake of 5-HT into rat brain synaptosomes relative to uptake of ^3 H noradrenaline. The test procedure involved obtaining synaptosomal preparations from male Sprague Dawley rats according to the method of Grey and Whittaker* as modified by Wood & Wyllie.** Aliquots of the synaptosomal preparation were then incubated with tritrated noradrenaline (NA) or 5-HT at a temperature of 37° for 4 minutes. The active synaptosomal accumulation of labelled substrate was measured by filtration and scintillation counting. The effect at a range of concentrations of test compound enabled IC50 values and selectivity ratios to be calculated.

[3] = system: 5-HT uptake into rat brain synaptosomes; assay: Inhibition of 5-HT uptake into rat brain synaptosomes; type: biochemical, male Sprague Dawley rats; conditions: for IC50: 37°, 4 minutes; for Selectivity Ratio (5-HT uptake relative to NA uptake): from IC50 NA and IC50 5-HT
Method: as §4

[4] = system: 5-hydroxy-L-tryptophan induced behavioural syndrome; assay: Potentiation of 5-hydroxytryptophan (5-HTP)-induced behaviour in rats; type: in vivo, male Sprague-Dawley rats; conditions: Rattus norvegicus, po
Method: The compounds B and C were also tested for their ability to potentiate 5-hydroxy-L-tryptophan induced behavioural syndrome in rats. The test procedure is described below (updated from that described in UK No. 2073179B).
Potentiation of 5-hydroxytryptophan (5-HTP)-induced behaviour
Groups of 10 male Sprague-Dawley rats (310-360 g) were dosed p.o. with vehicle or drugs. Ninety minutes later 5-HTP (50 mg/kg s.c.) was administered and the animals placed in individual observation chambers (peripheral decarboxylation was prevented by 25 mg/kg i.p. carbidopa administered 60 minutes before 5-HTP). Head shakes were counted over the period 30-45 minutes after 5-HTP and the intensity of the 5-HT syndrome was scored immediately afterwards using the system described for the pCA procedure above. Percentage potentiation of syndrome was calculated as follows: […]
0, 1, 2 or 3 according to severity
as §2
Percentage potentiation was calculated from the following: [formula]

pCA-induced stereotypy = assay: Duration of action: inhibition of pCA-induced stereotypy at various times after dosing; type: in vivo, male Sprague-Dawley rats; conditions: 6 mg/kg p.o.
Method: as §1
The animals were then placed in individual observation chambers and, 30 minutes after pCA administration, the intensity of the pCA-induced 5-HT syndrome was assessed according to the following scoring system:
as §3

[5] = rats, p.o., 90 min before pCA 10 mg/kg i.p., scored 30 min after pCA, free bases except C (maleate, corrected for active material), read-out: ED50 (dose required to produce 50% inhibition of pCA induced stereotypy)
[6] = rats, p.o., 90 min before 5-HTP 50 mg/kg s.c., carbidopa 25 mg/kg i.p., value of C corrected for amount of active ingredient, read-out: ED50 (potentiation of 5-HTP-induced behavioural syndrome)

SMILES: O=C(NC(=O)c1ccc2ncccc2c1)NC1CCN(Cc2ccc3ccccc3c2)CC1 [A, N-[[[1-(2-naphthalenylmethyl)-4-piperidinyl]amino]-carbonyl]-6-quinolinecarboxamide]
- inhibition of syndrome at 50 mg/kg ([1]; rats): 99%
- ED50 [1, 5]: 2.7 mg/kg
- antagonism of pCA-induced stereotypy (in words) ([1]; rats, p.o.): antagonised pCA-induced stereotypy in a dose-dependent manner

SMILES: O=C(NC(=O)c1ccccc1)NC1CCN(Cc2ccc3ccccc3c2)CC1 [panuramine, 1-benzoyl-3-[1-(naphth-2-ylmethyl)piperid-4-yl]urea, reference compound]
- duration of action (in words) (pCA syndrome): much shorter duration of action
- inhibition after 16 hours (pCA syndrome; 16 hours): 12.2%
- inhibition after two hours (pCA syndrome; two hours): 65.1%
- inhibition of syndrome at 50 mg/kg ([1]; rats): ca. 78%
- ED50 ([1]; same test, monohydrochloride corrected for amount of active ingredient, read-out: ED50 (inhibition of pCA induced stereotypy), panuramine): 16.2 mg/kg
- IC50 [2]: 8.5 µM
- IC50 [3]: 0.063 µM
- Selectivity Ratio (5-HT uptake relative to NA uptake) [3]: 135
- ED50 ([4]; same test, corrected for amount of base, read-out: ED50 (potentiation of 5-HTP-induced behavioural syndrome), panuramine HCl salt): 27.4 mg/kg

SMILES: O=C(NC(=O)c1ccc2ncccc2c1)NC1CCN(Cc2ccc3cc(F)ccc3c2)CC1 [C, N-[[[1-(6-fluoro-2-naphthalenylmethyl)-4-piperidinyl]-amino]-carbonyl]-6-quinolinecarboxamide]
- % Inhibition of pCA induced stereotypy, time 2 (pCA-induced stereotypy; time 2 after administration of 5-HT inhibitor (time unit not given)): ca. 79%
- % Inhibition of pCA induced stereotypy, time 6 (pCA-induced stereotypy; time 6 after administration of 5-HT inhibitor (time unit not given)): 82.8%
- % Inhibition of pCA induced stereotypy, time 12 (pCA-induced stereotypy; time 12 after administration of 5-HT inhibitor (time unit not given)): 56.9%
- % Inhibition of pCA induced stereotypy, time 16 (pCA-induced stereotypy; time 16 after administration of 5-HT inhibitor (time unit not given)): 57.6%
- inhibition of syndrome at 50 mg/kg ([1]; rats): 99%
- ED50 [1, 5]: 2.1 mg/kg
- antagonism of pCA-induced stereotypy (in words) ([1]; rats, p.o.): antagonised pCA-induced stereotypy in a dose-dependent manner
- IC50 [2]: 37 µM
- IC50 [3]: 0.082 µM
- Selectivity Ratio (5-HT uptake relative to NA uptake) [3]: 450
- ED50 [4, 6]: 2.4 mg/kg

SMILES: O=C(NC(=O)c1ccc2ncccc2c1)NC1CCN(Cc2ccc3ncccc3c2)CC1 [B, N-[[[1-(quinol-6-ylmethyl)-4-piperidinyl]amino]-carbonyl]-6-quinolinecarboxamide]
- inhibition of syndrome at 50 mg/kg ([1]; rats): 99%
- ED50 [1, 5]: 6.5 mg/kg
- antagonism of pCA-induced stereotypy (in words) ([1]; rats, p.o.): antagonised pCA-induced stereotypy in a dose-dependent manner
- IC50 [2]: 8.9 µM
- IC50 [3]: 0.043 µM
- Selectivity Ratio (5-HT uptake relative to NA uptake) [3]: 207
- ED50 [4, 6]: 7.3 mg/kg

Source: US4778802A, “Heterocyclic compounds” (John Wyeth & Brother, Ltd., priority 1985, dated 1988)
